According to US5936065A, “CS-1 peptidomimetics, compositions and methods of using the same” (Cytel Corporation, priority 1995, dated 1999):
Square brackets hold non-standard residues; d marks the D form. Peptide text beside a SMILES is read from it. * marks the point of attachment. PhAc = O=C(Cc1ccccc1)*

Tests used:
[1] = target: T1, VLA-4 receptor (Homo sapiens, UniProt P05556+P13612); assay: In vitro binding assay: inhibition of binding of 51Cr-labeled Jurkat cells to solid phase-bound CS-1 compound (SEQ ID NO:1); assay type: cell-based; conditions: for Relative Potency: binding inhibition potency (IC50) normalized to standard compound of SEQ ID NO:3 = 1, multiple assays averaged, about one-tenth or less assigned zero
T1 construct: inflammatory cells that contain the VLA-4 receptor [Jurkat cells; host or cells: Jurkat cells (human T lymphoblastic line)
Method: Binding inhibition is measured here as a concentration of compound that inhibits one-half the binding between a standard number of Jurkat cells and a standard amount of CS-1 compound bound to the surface of a microtiter plate well. Those concentrations are conveniently expressed as IC50 values, smaller numbers indicating a lower concentration required to inhibit 50 percent binding and therefore greater potency. Further specifics of this assay are provided hereinafter.
Jurkat cells (ATCC TIB 152), a human T lymphoblastic line, labeled with ^51 chromium were used to assay in vitro binding inhibition provided by various compounds discussed herein.
The plates were prepared as follows: The 25-mer CS-1 compound (SEQ ID NO:1) dissolved at 0.5-1 μg/ml in a buffer of 0.1M NaHCO3 at pH 9.5 that also contained 10 μg/ml of bovine serum albumin (BSA) or a conjugate of the CS-1 compound linked to ovalbumin (CS-1-OVA) dissolved at 1-2.5 μg/ml in the same buffer was used as the substrate. Each well of the microtiter plates was coated with 50 μl of substrate or buffer alone for controls. The wells were permitted to dry out completely and were then rinsed twice with PBS at pH 7.4. Non-specific binding sites of each well were then blocked using 200 μl per well of RPMI/1 percent BSA for two hours at room temperature.
Jurkat cells (3-5×10^6 cells) were placed into a 15 ml Falcon™ round-bottom tube with a cap. The tube was centrifuged, and the extra medium was then removed.
Two hundred microliters of a ^51 Cr labeling solution were added to the centrifuged cells and maintained in contact with the cells for 90-120 minutes in a warm room. […] Longer contact times provide a greater amount of labeling but lower cell viability.
The labeled cells are washed with (i) complete medium, (ii) 1 mM EDTA/PBS and then (iii) RPM1/1 percent BSA free of serum components. The cells are centrifuged after each washing. The cells are finally resuspended in serum-free RPMI/1 percent BSA at a concentration of 1×10^6 viable cells/ml, which provides a concentration that is diluted by one-half in the assay.
Inhibitor compounds are prepared as stock solutions at 20 mg/ml in DMSO in 1.5 ml cryogenic screwcap vials, and were stored at -70° C. Using Flow™ round-bottom or V-bottom microtiter plates, the inhibitor compounds were prepared at twice the assay concentration in RPMI/1 percent BSA at 60 μl/well.
Four initial dilutions were typically used.
The ^51 Cr-labeled cells ([…] at 60 μl/well) were then admixed with the diluted compound solutions. The admixtures were maintained at room temperature (about 22° C.) for 30 minutes.
One hundred microliters of each inhibitor compound/cell admixture were transferred to the substrate-coated wells. This was done in triplicate for each dilution. The resulting plates were incubated for 30 minutes at 37° C. and then washed gently three times with RPMI/1 percent BSA at 200 μl/well. Binding was observed microscopically, particularly after the second wash.
The bound cells were then lysed by the addition of a 0.5 percent solution of sodium dodecylsulfate in water at 100 μl/well. The resulting solutions were then processed for counting and calculation of IC50 values following usual procedures.
The data of Table 1 are normalized to the binding of SEQ ID NO:3. […] Multiple assays for the same compound were averaged.

[2] = tested on: New Zealand white rabbits; assay: Rabbit heterotopic cardiac allograft model; assay type: in vivo; conditions: for Expression on Coronary Arteries: ICAM-1 / Expression on Coronary Arteries: Macrophages / Expression on Coronary Arteries: T cells / Expression on Coronary Arteries: Total Fibronectin / Expression on Coronary Arteries: VCAM-1 / Expression on Coronary Arteries: MHC Class II: 1 mg/kg s.c., allograft, 7 to 8 days; for Expression on Coronary Arteries: MHC Class II: immunohistochemistry; for Expression on Coronary Arteries: ICAM-1: key: -: negative; ±: minimal; +: little; ++: moderately abundant; +++: very abundant; for Expression on Coronary Arteries: Macrophages: key: -: negative; ±: minimal; +: little; ++: moderately abundant; +++: very abundant; for Expression on Coronary Arteries: T cells: key: -: negative; ±: minimal; +: little; ++: moderately abundant; +++: very abundant; for Expression on Coronary Arteries: Total Fibronectin: key: -: negative; ±: minimal; +: little; ++: moderately abundant; +++: very abundant
Source text: New Zealand white rabbit SPF hearts were allografted into the necks of similar rabbits to assay a graft-vs-host immunorejection model and the affect of a contemplated compound on that immunoinflammatory response.
New Zealand white female rabbits (Charles River Lab., Saint Laurent, Quebec), between 3.5 and 4 kg underwent heterotopic cardiac transplant following an experimental protocol previously described [Alonso et al., Am. J. Pathol., 87:415-442 (1977); Clausell et al., Circulation, 89:2768-2779 (1994)]. The animals were unselected to favor an HLA-mismatch, the host rabbits were Pasteurella-free and the donors, outbred animals. Both host and donor rabbits were fed Purina 5321-0.5 percent cholesterol diet (Research Diets Inc., New Brunswick, N.J.), a strategy that has proven useful in accelerating the process of allograft arteriopathy [Alonso et al., Am. J. Pathol., 87:415-442 (1977)]. The diet was commenced four days prior to the transplant and continued in the recipient of the transplant until the completion of the experimental period.
The technique of heterotopic cardiac transplantation has been previously described [Clausell et al., Circulation, 89:2768-2779 (1994)]. Briefly, a vertical incision was performed in the anterior aspect of the neck of the recipient rabbit and the left common carotid artery and the ipsilateral external jugular vein were isolated. The cardiac allograft was placed in the neck by anastomosing the aorta end-to-side to the recipient's carotid artery and the pulmonary end-to-side to the recipient's external jugular vein, following a total period of ischemia for the donor hearts of approximately 30 minutes. Postoperative care was in compliance with the Principles of Laboratory Animal Care formulated by the Canadian National Society for Medical Research.
Beginning the day of the transplant, the animals were randomized and treated with either scrambled compound (control group) at 1 mg/kg s.c. or the inhibitor compound at 1 mg/kg s.c. The doses of the compounds were empirically extrapolated to the in vivo model based on preliminary in vitro studies, of Table 1. No other immunosuppression therapy was administered. The grafts were monitored daily by palpation and maintained for 7 to 8 days, a previously described endpoint that was associated with myocardial rejection (impaired cardiac contractility) and development of the allograft arteriopathy in this model [Clausell et al., Circulation, 89:2768-2779 (1994)]. A total of fourteen animals were studied in the control (n=7) and treated (n=7) groups.
The animals were sacrificed using a lethal dose of euthanol (480 mg i.v.) (MTC Pharmaceutical, Cambridge, ON), host and donor hearts were removed, and the coronary arteries were perfused with saline through the aorta, followed by light fixation by perfusion with 2 percent paraformaldehyde (Sigma, St, Louis, Mo.). […] Different sections of the hearts were either saved in 10 percent formalin (BDH Inc., Toronto, ON) for light microscopy studies or immediately frozen in O.T.C. Compound Tissue Tek (Miles Inc., Elkart, Ind.) for specific immunohistochemistry studies.
Tissue specimens from the donor hearts were stained with hematoxylin:eosin for histological grading of rejection according to a modified Billingham's criteria [Billingham, Hum. Pathol., 10:367-386 (1979)]. The sections were graded by a pathologist without knowledge of whether the donor hearts came from control or inhibitor compound treated animals.
Three different paraffin-embedded tissue sections from host and donor hearts from both control and treated rabbits were stained by the Movat pentachrome method for light microscopy. Morphometric analysis was performed using a Zeiss microscope attached to a computer-generated video analysis system (Perceptics Inc., NuVision software), as described in Clausell et al., Circulation, 89:2768-2779 (1994). […]

T1 sequence (P13612 34-1032): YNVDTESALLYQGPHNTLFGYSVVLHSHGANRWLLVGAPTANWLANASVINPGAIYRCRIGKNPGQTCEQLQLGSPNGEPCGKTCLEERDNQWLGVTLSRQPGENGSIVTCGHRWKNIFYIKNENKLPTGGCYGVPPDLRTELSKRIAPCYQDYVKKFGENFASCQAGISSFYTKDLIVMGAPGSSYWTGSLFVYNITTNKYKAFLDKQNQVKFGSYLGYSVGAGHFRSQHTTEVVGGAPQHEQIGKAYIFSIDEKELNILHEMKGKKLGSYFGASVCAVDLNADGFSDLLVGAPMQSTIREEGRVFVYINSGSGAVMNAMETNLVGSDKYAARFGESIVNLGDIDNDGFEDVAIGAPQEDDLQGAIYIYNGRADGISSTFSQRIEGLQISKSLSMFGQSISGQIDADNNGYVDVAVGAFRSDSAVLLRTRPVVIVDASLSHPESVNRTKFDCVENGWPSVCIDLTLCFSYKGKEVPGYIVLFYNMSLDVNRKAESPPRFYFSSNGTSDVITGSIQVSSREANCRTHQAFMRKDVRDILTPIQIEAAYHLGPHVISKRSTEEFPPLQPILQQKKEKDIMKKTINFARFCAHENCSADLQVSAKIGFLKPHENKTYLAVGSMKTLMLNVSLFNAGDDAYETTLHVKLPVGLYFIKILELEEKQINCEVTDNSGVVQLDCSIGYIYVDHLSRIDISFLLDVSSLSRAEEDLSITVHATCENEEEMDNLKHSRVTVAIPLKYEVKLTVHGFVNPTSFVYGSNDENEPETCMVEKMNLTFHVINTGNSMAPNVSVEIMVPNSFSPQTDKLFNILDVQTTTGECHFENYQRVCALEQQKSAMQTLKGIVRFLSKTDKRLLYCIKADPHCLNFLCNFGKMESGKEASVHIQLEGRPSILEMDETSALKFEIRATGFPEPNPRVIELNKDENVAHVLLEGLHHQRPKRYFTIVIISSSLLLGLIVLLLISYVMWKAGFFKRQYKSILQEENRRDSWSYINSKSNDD
T1 sequence (P05556 21-798): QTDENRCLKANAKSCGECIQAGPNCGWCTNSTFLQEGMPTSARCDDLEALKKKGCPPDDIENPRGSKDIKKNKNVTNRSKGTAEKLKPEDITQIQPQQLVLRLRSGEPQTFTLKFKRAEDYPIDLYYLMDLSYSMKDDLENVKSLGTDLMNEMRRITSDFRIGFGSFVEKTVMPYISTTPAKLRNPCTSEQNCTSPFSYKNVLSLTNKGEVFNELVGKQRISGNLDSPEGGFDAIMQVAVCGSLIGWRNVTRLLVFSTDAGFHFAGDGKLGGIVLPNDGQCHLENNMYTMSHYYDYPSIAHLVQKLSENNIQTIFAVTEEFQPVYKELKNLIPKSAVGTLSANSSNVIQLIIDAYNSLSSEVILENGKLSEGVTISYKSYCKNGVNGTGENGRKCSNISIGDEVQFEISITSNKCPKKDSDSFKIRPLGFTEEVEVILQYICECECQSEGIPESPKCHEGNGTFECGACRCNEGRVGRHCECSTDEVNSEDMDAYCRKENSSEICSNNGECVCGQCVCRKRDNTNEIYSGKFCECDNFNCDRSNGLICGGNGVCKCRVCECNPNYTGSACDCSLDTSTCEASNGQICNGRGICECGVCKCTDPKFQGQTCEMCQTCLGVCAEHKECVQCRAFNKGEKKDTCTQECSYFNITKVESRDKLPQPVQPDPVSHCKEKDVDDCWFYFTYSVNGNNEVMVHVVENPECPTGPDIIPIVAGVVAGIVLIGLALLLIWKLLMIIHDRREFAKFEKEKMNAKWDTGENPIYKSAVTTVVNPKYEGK

Compound | IC50 value, times less than the IC50 value for the standard 10-mer ([1]; as shown in Table 1) | Relative Potency [1] | Expression on Coronary Arteries: ICAM-1 [2] | Expression on Coronary Arteries: Macrophages [2] | Expression on Coronary Arteries: T cells [2] | Expression on Coronary Arteries: Total Fibronectin [2] | Expression on Coronary Arteries: VCAM-1 [2] | Expression on Coronary Arteries: MHC Class II [2] | Baseline (rabbit own host heart) of incidence of intimal thickening [2] [%] | Baseline (rabbit own host heart) of severity of intimal thickening [2] [%] | binding inhibition, in words (compared with standard 10-mer of SEQ ID NO:3 or other compounds) [1]
CC(C)C[C@H](NC(=O)Cc1ccccc1)C(=O)N[C@@H](CC(=O)O)C(=O)N[C@@H](Cc1ccccc1)C(=O)N1CCC[C@@H]1C(N)=O [896.52, N-phenylacetyl-Leu-Asp-Phe-D-Pro-NH2] (PhAc-LDF[dP]-NH2) | about 312 times | 313 | ± | ± | ± | ± | ± | ± | 12 | 12 | –
CC(C)C[C@H](NC(=O)[C@H](CC(=O)O)NC(=O)Cc1ccccc1)C(=O)N[C@@H](Cc1ccccc1)C(=O)N1CCC[C@@H]1C(N)=O [N-phenylacetyl-Asp-Leu-Phe-D-Pro-NH2, reference compound] (PhAc-DLF[dP]-NH2) | – | 0 | + | + | ++ | ++ | + | ++ | 1 | 12 | no inhibition of VLA-4
